Source: patent publication US9290740B2, “Use of basic fibroblast growth factor in the de-differentiation of animal connective tissue cells” (Worcester Polytechnic Institute, priority 2008, dated 2016)
Where “and” joins values, the source holds several entries; their conditions need not be identical. Equal values may be shown once.

Tests used:
[1] = test system: adult human dermal fibroblasts (CRL-2352); test: Effect of FGF2 and oxygen level on proliferation and in vitro lifespan (population doublings to senescence); format: cell-based
Procedure: Adult human fibroblasts (cell line CRL-2352) derived from connective tissue isolated from tissue derived from a below knee amputation of a person were received from American type Tissue Culture Collection (ATCC) (Manassas, Va.) as cryopreserved vials and were stored in liquid nitrogen until use. Cells were thawed at 37 C and added dropwise to 10 ml of basal culture medium (CM-1A, 45% DMEM without L-gln or phenol red (MediaTech, Manassas, Va.) with 4 mM L-Gln (MediaTech), 45% Hams F12 Medium (MediaTech), and 10% Fetalclone III (Hyclone, Logan, Utah)). The cell suspension was centrifuged at 700×g for 5 min, the medium aspirated and the pellet resuspended in fresh CM1A culture medium. Cells were seeded at a density of 0.5×106 in 10 ml of medium in T75 tissue culture flasks (BD Falcon). Cultures were carried out in a 37 C incubator in a humidified environment of 5% CO2, 5% O2, 90% N2. Cells were passaged at routine intervals at approximately 70-90% confluence using Trypsin-EDTA solution (MediaTech) diluted 1:5 in DPBS without Ca2+/Mg2+ (MediaTech). At each passage, cells were counted using a Levy Counting chamber (Hausser Scientific) and the number of population doublings calculated as log 2. For comparative studies, human recombinant FGF2 (either Invitrogen or Chemicon) was supplemented into CM1A at 4 ng/ml (medium designated CM2A) from a 100 μg/ml stock solution in DPBS (MediaTech).
Cells were passaged continuously at either 3 or 4 day intervals without interruption until in vitro senescence was reached. Two replicate T25 vessels of cells for each treatment (with or without FGF2) were seeded at each passage with 100,000 cells per vessel. The average number of population doublings (PDs) was calculated at each passage and cumulative PDs plotted versus time (days) in culture (FIG. 1).
Cells were thawed and seeded at equal density into T25 cell culture flasks (BD Falcon) and cultured at 37° C., 5% CO2, balance air (high O2); and 37° C., 5% CO2, 5% O2, 90% N2 (low O2). For each oxygen tension level, cells were also cultured with and without FGF2 (4 ng/ml). Cells were passaged at 3 or 4 day intervals, counted and 100,000 cells re-seeded at each passage. The number of population doublings at each passage was determined and cumulative population doublings compared between low and high O2 treatment groups. In addition, at day 28 of culture, FGF2 was removed from a population of cells and the culture continued to monitor the long term effect of previous culture with FGF2.
Primary adult human dermal fibroblasts from connective tissue isolated from tissue biopsy from a below knee amputation of a person were received from ATCC(CRL-2352) at passage 2. Cells were cultured in medium consisting of DMEM:Ham's F12 ([…], MediaTech) with 10% Fetalclone III (Hyclone, Logan, Utah). The DMEM (without L-Gln or phenol red) was supplemented with 4 mM fresh L-Gln (MediaTech) prior to use. Cultures were carried out in a 37° C. incubator in a humidified environment of 5% CO2, 5% O2, and 90% N2. The number of population doublings calculated as log2. Cells were seeded at 100,000 cells per T25 flask at each passage (Falcon). […] Human muscle derived fibroblasts were derived from surplus muscle tissue from the calf flexor muscle used for a surgical knee repair in an adult. Tissue was rinsed in Leibowitz L-15 medium (MediaTech) containing 10 μg/ml gentamicin (Invitrogen) and 2.5 μg/ml fungizone (Hyclone) and minced using a sterile scalpel and digested with 1800 units/ml collagenase Type IV for 1 hour at 37° C. Cell lines were established by culture at 5% O2 from the beginning and working stocks cryopreserved at passage 2.

[2] = test system: adult human dermal fibroblasts (CRL-2352); test: as above; format: cell-based; conditions: FGF2 10 ng/ml

FGF2: human recombinant FGF2 (Invitrogen, Chemicon or Protide), basic fibroblast growth factor
population doublings at senescence, low O2 with FGF2 ([1]; FGF2 4 ng/ml, 5% O2): 65 PDs and 70 PDs | proliferation rate versus cells without FGF2 ([1]; FGF2 4 ng/ml, 5% O2): proliferated more rapidly | additional population doublings achieved by addition of FGF2 (on average) ([1]; FGF2 4 ng/ml, 5% O2, until replicative senescence): 19 population doublings | population doublings at senescence, atmospheric oxygen with FGF2 ([1]; FGF2 4 ng/ml, atmospheric oxygen): 49 PDs and 50 PDs | cell morphology ([1]; FGF2, 5% O2): smaller cells with a more spindle shape | karyotype ([1]; FGF2/low oxygen-treated fibroblasts): maintained normal karyotype | increase in longevity / cell passage over primary cells cultured without these conditions ([1]; FGF2 and low oxygen conditions): two fold increase | number of passages observed ([1]; FGF2 and low oxygen conditions, primary cells typically about 20 to 30): 70 times | effect on adult fibroblast proliferation at 10 ng/ml [2]: halted adult fibroblast proliferation
